Where two headings read alike, the source gives them in different places.
Key:
PC-3 = experiment: MTT viability assay, PC-3; assay type: cell-based; settings: MTT, 24 h incubation, mean ± standard error
Method: (§1) Using concentrations ranging from 0 to 100 μM against PC-3, SKOV-3, and HeLa cancerogenic cell lines, target compounds 4a–l were assessed for their anticancer activities[53] and compared with the commercially available Vinblastine and Doxorubicin. […] The compounds with the greatest cytotoxic activity against the cancerous cell lines PC-3, SKOV-3, and HeLa were 4a–c, 4g, and 4h. […] We selected the cytotoxic active compounds 4a–c, 4g, and 4h to be evaluated against MCF-7/ADR cancerogenic and HFL-1 and WI-38 non-cancerogenic cell lines (Figs. 7, 8 and Table 1).
(§2) The tumor cell lines (PC-3, SKOV-3, and HeLa), resistant cell strains (MCF-7/ADR) and the normal cell lines, (HFL-1, WI-38) were obtained from the American Type Culture Collection (ATCC, Rockville, MD, USA).
(§3) The tumor cell lines were suspended in medium at concentration 5 × 10^4 cells well^−1 in Corning® 96-well tissue culture plates and then incubated for 24 h. The tested compounds with concentrations ranging from 0 to 100 μM were then added into 96-well plates (six replicates) to achieve six different concentrations for each compound. Six vehicle controls with media or 0.5% DMSO were run for each 96 well plate as a control. After incubating for 24 h, the numbers of viable cells were determined by the MTT test[53]. Briefly, the media was removed from the 96 well plates and replaced with 100 μl of fresh culture RPMI 1640 medium without phenol red then 10 μl of the 12 mM MTT stock solution (5 mg of MTT in 1 ml of PBS) to each well including the untreated controls. The 96-well plates were then incubated at 37 °C and 5% CO2 for 4 h. An 85-μl aliquot of the media was removed from the wells, and 50 μl of DMSO was added to each well and mixed thoroughly with the pipette and incubated at 37 °C for 10 min. Then, the optical density was measured at 590 nm with the microplate reader (Sunrise, TECAN, Inc, USA) to determine the number of viable cells and the percentage of viability was calculated as […] where ODt is the mean optical density of wells treated with the tested sample and ODc is the mean optical density of untreated cells. The relation between surviving cells and drug concentration is plotted to get the survival curve of each tumor cell line after treatment with the specified compound. The 50% inhibitory concentration (IC50), the concentration required to cause toxic effects in 50% of intact cells, was estimated from graphic plots of the dose response curve for each concentration.

P-gp [1] = biological target: T1, P-gp (Homo sapiens, UniProt P08183); experiment: in vitro; settings: MCF-7/ADR cells (cell lysate)
Method: (§4) The content of P-gp in the MCF-7/ADR cell lysates after incubation with varying conc. […] Absorption was recorded at 450 nm with a Spectramax Gemini fluorescence microplate reader (Molecular Devices, Sunnyvale, CA, USA)[78].

MCF-7/ADR cells [2] = experiment: Annexin V-FITC/PI apoptosis assay; assay type: cell-based; settings: treated at IC50 value for 24 h; for total apoptosis percentage: equals sum of the three quadrants; for necrosis (upper left quadrant, PI / Annexin V-FITC plot): control 1.56%
Method: P-gp inhibits apoptosis by preventing the release of cytochrome c which is mediated by the intrinsic mitochondrial pathway. Also, blocking cell cycle progression, inducing apoptosis or the combined effect of both are one of the indicated mechanisms for the cytotoxic effect of the chemotherapeutic drugs. Therefore, further assessment of the pivotal relationship between the newly synthesized MCF-7/ADR anticancer compounds and apoptosis was measured by the means of the Annexin V/PI double staining flow cytometric assay.
Apoptosis assay was performed with an Annexin V-FITC/PI double staining apoptosis detection kit (K101, Biovison) using a flow cytometer. […] Cells were harvested by the trypsinization, washed twice with 4 °C PBS, and re-suspended in the binding buffer. Subsequently, the Annexin V-FITC and Propidium iodide (PI) solutions were added to stain the cells before the analysis by the flow cytometry, where a minimum of 10,000 cells per sample were acquired. The Annexin V-FITC binding (FL1) and PI (FL2) were analyzed, using the Cell Quest Pro software (BD Biosciences).

MCF-7/ADR = experiment: MTT viability assay, resistant MCF-7/ADR; assay type: cell-based; settings: MTT, 24 h exposure, mean ± standard error
Method: as §1, §2, §3

HeLa = experiment: MTT viability assay, HeLa; assay type: cell-based; settings: 24 h incubation, mean ± standard error
Method: as §1, §2, §3

MCF-7/ADR cells [3] = experiment: Cell cycle assay (propidium iodide flow cytometry); assay type: cell-based; settings: treated at IC50 value for 24 h; for percentage of MCF-7/ADR cells in S phase (%DIP S): untreated control 29.61%
Method: The most powerful recently synthesized substances 4a–c on regulating cell cycle progression of MCF-7/ADR cells was analyzed by the flow cytometry, exploiting the FACS Calibers (Becton Dickinson). […] Cell cycle progression results of compounds 4a and 4b show cell cycle arrest at S phase with 41.17% and 34.62% respectively compared to 29.61% of the negative untreated control. […] Cell cycle arrest and distribution were done using Propidium Iodide Flow Cytometry Kit (ab139418, Abcam) as previously described. […] The DNA content in each cell nucleus was determined by a FACS Calibur flow cytometer (BD Biosciences, Franklin Lakes, NJ, USA).

SKOV-3 = experiment: MTT viability assay, SKOV-3; assay type: cell-based; settings: for IC50: MTT, 24 h incubation, mean ± standard error; for times more potency than Doxorubicin, SKOV-3 / times more potency than Vinblastine, SKOV-3: ratio of IC50 values
Method: as §1, §2, §3

human fetal lung (HFL-1) = experiment: MTT viability assay, normal HFL-1; assay type: cell-based; settings: HFL1, normal cell line, 24 h, mean ± standard error
Method: as §1, §2, §3

P-gp [4] = biological target: T1, P-gp; experiment: cell-based
Method: Absorbance at 450 nm of each well was measured using Spectramax Gemini fluorescence microplate reader (Molecular Devices, Sunnyvale, CA, USA). The total content of Rhodamine in each sample was determined by comparison with a Rhodamine standard curve.

[5] = system: human diploid fibroblasts (WI-38); experiment: MTT viability assay, normal WI-38; assay type: cell-based; settings: normal cell line, 24 h, mean ± standard error
Method: as §1, §2, §3

P-gp [6] = biological target: T1, P-gp
Method: as §4

T1 sequence (P08183 whole entry): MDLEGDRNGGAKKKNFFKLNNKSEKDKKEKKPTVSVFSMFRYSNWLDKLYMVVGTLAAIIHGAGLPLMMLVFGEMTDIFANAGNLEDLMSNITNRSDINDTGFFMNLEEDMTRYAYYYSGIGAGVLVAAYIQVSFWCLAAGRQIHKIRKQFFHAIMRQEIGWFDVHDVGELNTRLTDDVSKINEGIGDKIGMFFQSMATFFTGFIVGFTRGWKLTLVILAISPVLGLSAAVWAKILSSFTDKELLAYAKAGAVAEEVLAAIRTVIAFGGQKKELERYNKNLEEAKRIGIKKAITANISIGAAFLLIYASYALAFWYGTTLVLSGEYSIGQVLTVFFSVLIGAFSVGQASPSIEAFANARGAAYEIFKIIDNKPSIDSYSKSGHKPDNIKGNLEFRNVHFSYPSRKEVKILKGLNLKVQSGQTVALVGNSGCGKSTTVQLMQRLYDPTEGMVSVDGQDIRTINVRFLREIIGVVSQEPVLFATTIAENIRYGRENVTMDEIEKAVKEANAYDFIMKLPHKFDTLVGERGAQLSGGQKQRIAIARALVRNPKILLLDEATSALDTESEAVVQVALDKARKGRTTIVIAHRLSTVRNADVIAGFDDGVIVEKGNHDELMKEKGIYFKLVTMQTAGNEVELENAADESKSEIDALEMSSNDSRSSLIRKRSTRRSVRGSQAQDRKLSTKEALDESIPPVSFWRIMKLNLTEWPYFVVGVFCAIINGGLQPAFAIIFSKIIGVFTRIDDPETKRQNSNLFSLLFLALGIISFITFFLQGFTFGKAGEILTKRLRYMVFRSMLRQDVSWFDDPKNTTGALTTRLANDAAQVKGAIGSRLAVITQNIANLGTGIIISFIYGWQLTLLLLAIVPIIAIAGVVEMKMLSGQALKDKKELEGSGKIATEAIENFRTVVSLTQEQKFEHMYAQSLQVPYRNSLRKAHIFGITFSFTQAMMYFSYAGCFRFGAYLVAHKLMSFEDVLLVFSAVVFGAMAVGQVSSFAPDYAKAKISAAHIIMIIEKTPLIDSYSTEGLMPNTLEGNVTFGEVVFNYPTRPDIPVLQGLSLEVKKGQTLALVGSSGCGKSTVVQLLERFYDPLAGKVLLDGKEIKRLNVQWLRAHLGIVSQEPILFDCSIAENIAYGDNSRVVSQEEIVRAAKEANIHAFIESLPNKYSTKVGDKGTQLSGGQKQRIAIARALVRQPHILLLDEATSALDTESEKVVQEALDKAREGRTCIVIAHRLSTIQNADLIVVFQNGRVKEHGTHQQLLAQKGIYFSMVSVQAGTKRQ

IC50 (PC-3; Homo sapiens, PC-3) [µM]	IC50 at 48 h (P-gp [1]) [µM]	IC50 (MCF-7/ADR; Homo sapiens, NCI/ADR-RES) [µM]	IC50 (HeLa; Homo sapiens, HeLa) [µM]	IC50 (SKOV-3; Homo sapiens, SK-OV-3) [µM]	melting point [°C]	IC50 (P-gp [4]) [µM]	Compound	total apoptosis percentage (MCF-7/ADR cells [2]) [%]	percentage of MCF-7/ADR cells in S phase (%DIP S) (MCF-7/ADR cells [3]) [%]	times more potency than Doxorubicin, SKOV-3 (SKOV-3) [times]	times more potency than Vinblastine, SKOV-3 (SKOV-3) [times]	IC50 (human fetal lung (HFL-1)) [µM]	IC50 [5] [µM]	percentage of MCF-7/ADR cells in G2/M phase (%DIP G2/M) (MCF-7/ADR cells [3]; untreated control 15.01%) [%]	IC50 (PC-3) [µM]	necrosis (upper left quadrant, PI / Annexin V-FITC plot) (MCF-7/ADR cells [2]) [%]	IC50 (MCF-7/ADR) [µM]	IC50 (HeLa) [µM]	IC50 (P-gp [6]) [µM]	IC50 (SKOV-3) [µM]
3.3 ± 0.5	15.4	5 ± 0.1	2.4 ± 0.2	0.7 ± 0.2	262 to 263	13.3	N#CC1=C(N)Oc2ccc3ccc(O)cc3c2C1c1ccccc1Cl (centres unmarked) [4b, 3-Amino-1-(2-chlorophenyl)-9-hydroxy-1H-benzo[f]chromene-2-carbonitrile]	43.51	34.62	1.6	4.6	72 ± 0.2	61.1 ± 0.1							
2.3 ± 2.2	27.3	10.7 ± 0.3	2.1 ± 0.2	0.8 ± 0.1	260 to 261	21.5	N#CC1=C(N)Oc2ccc3ccc(O)cc3c2C1c1cccc(Cl)c1 (centres unmarked) [4c, 3-Amino-1-(3-chlorophenyl)-9-hydroxy-1H-benzo[f]chromene-2-carbonitrile]	36.17		1.4	4	56.5 ± 1.2	58.2 ± 1.1	29.54						
							Doxorubicin [reference compound]	29.59							1.3 ± 0.3	3.33	18.6 ± 0.2	1.5 ± 0.3	50.9	1.1 ± 0.2
1.8 ± 0.3	34.7	9.5 ± 0.3	1.5 ± 0.3	0.6 ± 0.2	272	30.9	N#CC1=C(N)Oc2ccc3ccc(O)cc3c2C1c1ccc(F)cc1 (centres unmarked) [4a, 3-Amino-1-(4-fluorophenyl)-9-hydroxy-1H-benzo[f]chromene-2-carbonitrile]	31.98	41.17	1.8	5.3	69.8 ± 0.3	83.7 ± 1.1			16.42				

Source: article PMC10981727, “Design, synthesis and bioactivity study on oxygen-heterocyclic-based pyran analogues as effective P-glycoprotein-mediated multidrug resistance in MCF-7/ADR cell” (Scientific Reports, 2024)
